Measured values reported in article PMC9992855, “Functional polyamine metabolic enzymes and pathways encoded by the virosphere” (Proceedings of the National Academy of Sciences of the …, 2023).

Experiments:
[1] = system: T1, UCP01 AdoMetDC homolog (pyruvoyl-dependent ODC); assay: decarboxylase activity assay; assay type: biochemical, uncultured Myoviridae sp.; details: 26 °C
T1 construct: gene speD; 117 aa; recombinant, purified; pyruvoyl enzyme
From the text: decarboxylase activity assay on UCP01 AdoMetDC homolog (pyruvoyl-dependent ODC)

[2] = system: T2, KNV1 arginase homolog; assay: released urea detection; assay type: biochemical, Klosneuvirus KNV1
T2 construct: expressed in E. coli, purified

[3] = system: T3, Pelagiphage HTVC201P "AdoMetDC" (pyruvoyl-dependent ADC); assay: decarboxylase activity assay; assay type: biochemical, Pelagibacter phage HTVC201P; details: 27 °C
T3 construct: gene speD; 122 aa; recombinant, purified; class 1b AdoMetDC homolog, pyruvoyl enzyme
From the text: decarboxylase activity assay on Pelagiphage HTVC201P "AdoMetDC" (pyruvoyl-dependent ADC)

[4] = system: T4, UCP04 AdoMetDC homolog (pyruvoyl-dependent ODC); details: 26 °C
T4 construct: gene speD
From the text: decarboxylase activity assay on UCP04 AdoMetDC homolog (pyruvoyl-dependent ODC)

[5] = system: Yellowstone Lake phycodnavirus 2 ODC; details: 26 °C
From the text: decarboxylase activity assay on Yellowstone Lake phycodnavirus 2 ODC

[6] = system: T5, LBP AdoMetDC homolog (pyruvoyl-dependent ODC); details: 26 °C
T5 construct: gene speD
From the text: decarboxylase activity assay on LBP AdoMetDC homolog (pyruvoyl-dependent ODC)

[7] = system: T6, UCP02 AdoMetDC homolog (pyruvoyl-dependent ODC); details: 26 °C
T6 construct: gene speD
From the text: decarboxylase activity assay on UCP02 AdoMetDC homolog (pyruvoyl-dependent ODC)

[8] = system: T7, UCP03 AdoMetDC homolog (pyruvoyl-dependent ODC); details: 26 °C
T7 construct: gene speD
From the text: decarboxylase activity assay on UCP03 AdoMetDC homolog (pyruvoyl-dependent ODC)

[9] = system: Klosneuvirus KNV1 ODC; details: 26 °C
[10] = system: T8, Hyperionvirus sp. APAH; assay: colorimetric acetate release; assay type: biochemical; details: 26 °C
T8 construct: 351 aa; expressed in E. coli, purified
From the text: colorimetric acetate release on Hyperionvirus sp. APAH

[11] = system: T9, Klosneuvirus KNV1 APAH; assay: colorimetric acetate release; assay type: biochemical; details: 26 °C
T9 construct: 345 aa; expressed in E. coli, purified
From the text: colorimetric acetate release on Klosneuvirus KNV1 APAH

In the case of `N=C(N)NCCC[C@H](N)C(=O)O` [L-arginine], the Km [1] is reported as 2200 ± 290 µM, the Km [2] is reported as 1300 ± 160 µM and the Km [3] is reported as 870 ± 110 µM.

Compound `NCCC[C@H](N)C(=O)O` [L-ornithine] has a Km [1] of 5500 ± 290 µM, a Km [4] of 440 ± 40 µM and a Km [5] of 540 ± 200 µM. For the same compound, the Km [6] was 3800 ± 430 µM, the Km [7] was 2400 ± 190 µM and the Km [8] was 620 ± 10 µM. The Km [9] was 430 ± 20 µM.

In the case of `CC(=O)NCCCNCCCCN` [N^1-acetylspermidine], the Km [10] is reported as 1600 ± 160 µM and the Km [11] is reported as 240 ± 20 µM.

Work on `CC(=O)NCCCCNCCCN` [N^8-acetylspermidine] yielded a Km [10] of 5000 ± 730 µM and a Km [11] of 450 ± 10 µM.
